The structures appear in SMILES notation. A value given as a limit tells only on which side of the number the result lay.

By inhibition is commonly meant the percentage by which the read-out fell short of the control.

The first experiment deals with Transient receptor potential cation channel subfamily M member 7 (Mus musculus) (UniProt Q923J1). The experiment can be described thus: Inhibition of Tet-induced Flag-tagged mouse TRPM7 expressed in HEK293 cells assessed as inhibition of channel-mediated cell death in presence of Mg2+ incubated for 24 to 48 hrs by propidium iodide uptake assay. Details: concentration or dose not given beside the values.
Chain of Transient receptor potential cation channel subfamily M member 7 (Mus musculus) (Q923J1 whole entry): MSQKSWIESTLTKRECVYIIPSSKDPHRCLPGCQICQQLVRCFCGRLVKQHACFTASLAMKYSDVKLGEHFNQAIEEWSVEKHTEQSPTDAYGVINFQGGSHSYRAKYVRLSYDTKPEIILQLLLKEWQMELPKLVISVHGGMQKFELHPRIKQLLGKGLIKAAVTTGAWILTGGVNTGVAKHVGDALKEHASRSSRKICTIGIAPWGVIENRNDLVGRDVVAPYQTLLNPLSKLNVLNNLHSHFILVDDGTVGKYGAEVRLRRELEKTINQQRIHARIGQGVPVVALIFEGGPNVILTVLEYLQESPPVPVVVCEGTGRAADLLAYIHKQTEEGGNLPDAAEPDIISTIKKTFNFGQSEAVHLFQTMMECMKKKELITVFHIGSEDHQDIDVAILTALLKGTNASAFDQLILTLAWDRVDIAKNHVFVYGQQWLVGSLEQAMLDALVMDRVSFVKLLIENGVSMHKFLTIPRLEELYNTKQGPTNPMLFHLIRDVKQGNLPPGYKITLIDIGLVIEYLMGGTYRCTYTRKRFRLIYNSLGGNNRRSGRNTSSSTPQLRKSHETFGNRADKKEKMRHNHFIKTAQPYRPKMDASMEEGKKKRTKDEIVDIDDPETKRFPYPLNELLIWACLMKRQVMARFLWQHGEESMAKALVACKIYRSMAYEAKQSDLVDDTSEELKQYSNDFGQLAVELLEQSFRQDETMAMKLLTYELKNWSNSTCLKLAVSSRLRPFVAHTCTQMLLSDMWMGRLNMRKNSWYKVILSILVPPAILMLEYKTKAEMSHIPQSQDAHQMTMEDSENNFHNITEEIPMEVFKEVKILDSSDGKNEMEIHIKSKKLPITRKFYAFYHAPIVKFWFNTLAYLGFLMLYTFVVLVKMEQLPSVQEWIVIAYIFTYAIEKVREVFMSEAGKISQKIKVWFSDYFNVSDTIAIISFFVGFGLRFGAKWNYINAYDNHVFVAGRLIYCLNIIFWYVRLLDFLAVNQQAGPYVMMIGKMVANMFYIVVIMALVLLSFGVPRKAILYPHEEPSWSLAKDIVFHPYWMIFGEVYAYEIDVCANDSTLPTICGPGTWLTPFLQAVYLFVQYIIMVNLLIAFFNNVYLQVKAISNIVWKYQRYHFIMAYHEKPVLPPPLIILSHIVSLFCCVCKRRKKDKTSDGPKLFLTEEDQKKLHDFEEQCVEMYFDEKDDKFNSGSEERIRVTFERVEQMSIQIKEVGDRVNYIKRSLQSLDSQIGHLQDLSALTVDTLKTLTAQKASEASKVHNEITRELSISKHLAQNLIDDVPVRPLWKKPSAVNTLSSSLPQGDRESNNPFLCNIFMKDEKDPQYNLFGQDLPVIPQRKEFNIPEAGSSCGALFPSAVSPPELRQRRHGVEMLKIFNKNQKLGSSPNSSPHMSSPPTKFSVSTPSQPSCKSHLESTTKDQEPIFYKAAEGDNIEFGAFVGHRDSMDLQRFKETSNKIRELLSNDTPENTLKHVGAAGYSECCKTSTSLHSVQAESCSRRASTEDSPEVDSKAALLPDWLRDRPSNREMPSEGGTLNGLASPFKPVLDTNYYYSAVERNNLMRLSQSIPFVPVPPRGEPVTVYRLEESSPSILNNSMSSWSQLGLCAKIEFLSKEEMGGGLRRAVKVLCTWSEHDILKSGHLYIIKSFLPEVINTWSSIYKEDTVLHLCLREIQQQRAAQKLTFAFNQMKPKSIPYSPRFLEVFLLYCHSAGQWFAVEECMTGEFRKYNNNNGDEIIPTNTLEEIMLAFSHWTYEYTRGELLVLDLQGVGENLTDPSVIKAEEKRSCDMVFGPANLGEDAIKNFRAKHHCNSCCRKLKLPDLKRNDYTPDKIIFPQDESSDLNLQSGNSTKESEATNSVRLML
Conditions: not given
The format is cell-based.
Consider `C[C@H]1O[C@@H](O[C@H]2[C@@H](O)C[C@H](O[C@H]3[C@@H](O)C[C@H](O[C@H]4CC[C@@]5(C)[C@H](CC[C@@H]6[C@@H]5C[C@@H](O)[C@]5(C)[C@@H](C7=CC(=O)OC7)CC[C@]65O)C4)O[C@@H]3C)O[C@@H]2C)C[C@H](O)[C@@H]1O`, for which the inhibition result was “Dose-dependent effect”.

Staying with this experiment, now noted: concentration not given here.
Turning to `Cc1ccc(-c2nc(NC(=O)Nc3ccccc3)sc2C)cc1Cl`, the inhibition is below 30%.
Still for that read-out and setting: to `Cc1c(S(=O)(=O)Nc2ccc(Cl)cc2)sc2ccc(Cl)cc12` belongs below 30%; to `Cc1c(C)c(C)c(CO/N=C/c2cccs2)c(C)c1C`, 70%; to `CCCCCc1ccc(S(=O)(=O)Nc2ccccc2C(=O)NCC2CC2)cc1`, 60%.
On to `c1ccc(/N=c2/[n-]n(-c3ccccc3)c[n+]2-c2ccccc2)cc1`, for which the inhibition was below 30%.
Same read-out and setting: to `O=C(c1sc2ccccc2c1Cl)N1CCc2ccccc2C1` belongs 70%; to `COc1ccc(/C=N/NS(=O)(=O)c2ccc(Cl)cc2)cc1OC`, 80%; to `O=C(NNC(=S)Nc1ccc2c(c1)CCCO2)c1ccco1`, below 30%.
For the compound `CCOC(=O)c1nc(COc2ccccc2Cl)[nH]c(=O)c1C`, the inhibition was below 30%.
Turning to `CSc1nnc(CN2C(=O)CSc3ccc(C(F)(F)F)cc32)n1C`, the inhibition was below 30%.
Take `CCOC(=O)c1nn(-c2cccc(Cl)c2)cc(Sc2ccc(Cl)cc2)c1=O`: the inhibition came to 40%.
Same read-out and setting: to `CC1(C)CC(=O)C=C(Sc2ccc(C#N)cc2[N+](=O)[O-])S1` belongs 50%; to `O=[N+]([O-])c1cccc(-c2ccc(/C=N/NC(=S)Nc3cccc(F)c3)o2)c1`, 30%; to `COC(=O)c1cc(C)nc(Sc2ccccc2NC(=O)c2ccccc2)n1`, below 30%.
Turning to `Cc1ccc(NC(=O)c2cccc3c2-c2ccccc2C3)cc1`, the inhibition was below 30%.
The same measure, in the same setting: in the case of `CN(C)c1cccc(N(C)C)c1CNC(=O)c1ccc(Cl)cc1` it was 80%.
On the same count and under the same terms, to `CN(C)c1cc(-c2cc(Cl)sc2Cl)oc(=O)c1Cl` belongs below 30%; to `CCCSC(=S)c1c(C)nn(-c2ccc(C)cc2)c1O`, 50%; to `N/C(=N\OC(=O)c1ccc(OCC(F)(F)F)nc1)c1ccc(OC(F)(F)F)cc1`, below 30%.
For the compound `COc1ccc(-c2[nH]ncc2CN2CCN(c3ccc(F)cc3)CC2)cc1`, the inhibition was below 30%.
The same measure, in the same setting: to `Cc1cc(SCc2nnc(-c3ccc([N+](=O)[O-])c(C)c3)o2)c(C)cc1Cl` belongs 80%; to `O=[N+]([O-])c1cccc(-c2ccc(/C=N/NC(=S)NCc3ccco3)o2)c1`, below 30%; to `NC(=O)c1sc(-c2ccc(Cl)cc2)cc1NS(=O)(=O)c1ccc(Cl)cc1`, 50%.
The same measure, in the same setting: to `Cn1c(SCC(=O)Nc2cccc3nsnc23)nnc1C(F)(F)F` belongs below 30%; to `O=C(Sc1ccc(C(F)(F)F)cn1)c1ccc(Cl)cc1`, below 30%; to `COc1ccc(S(=O)(=O)N2CCC(O)(c3ccc(Cl)cc3)CC2)cc1OC`, 40%.
Same read-out and setting: to `O=C(/C=N/O)Nc1ccccc1F` belongs below 30%; to `Cc1cc(OCc2c(C)c(C)c(C)c(C)c2C)c2c(Cl)ccc(C)c2n1`, 40%.
As for `COc1ccc(C2C3CCc4ccccc4C3=NN2CCOC(=O)Nc2ccc(Cl)cc2)cc1` (configuration not stated), the inhibition was found to be 60%.
The same measure, in the same setting: in the case of `Cc1c(-c2nc(-c3ccc([N+](=O)[O-])o3)no2)n(C)oc1=O` it was below 30%; in that of `CC(=O)Nc1ccc(S(=O)(=O)NNc2c(Cl)cncc2Cl)cc1Cl`, 50%.
Consider `CSc1nc2c(c(/C=C/c3ccccc3)c1C#N)CCC2`, for which the inhibition was below 30%.
Same read-out and setting: to `Clc1cccc2nnsc12` belongs 30%.
`CCc1cc2c(Sc3nnc(N)s3)ncnc2s1`: the inhibition was determined as 60%.
The same measure, in the same setting: in the case of `O=C(c1cc(Br)cc2c1OCC2)N1CCOCC1` it was below 30%.
Still for that read-out and setting: to `CCOC(=O)C(Nc1ccccc1)C(=O)OCC` belongs 30%; to `N#C/C(=N\Nc1ccc(Cl)c(Cl)c1)C(=O)C1CC1`, 40%.
Consider `N#CC(C#N)=CNc1cc(C(F)(F)F)ccc1N1CCc2ccccc2C1`, for which the inhibition came out at 50%.
The same measure, in the same setting: to `CCOC(=O)C(=CNc1csc(C)c1C(=O)OC)C(=O)OCC` belongs 60%.
With `CSC1=N/C(=C\c2ccc(Cl)cc2)C(=O)N1Cc1ccco1`, the inhibition was 60%.
On the same count and under the same terms, in the case of `CC(=O)CSc1nnc(CN2C(=O)CSc3ccc(C(F)(F)F)cc32)n1C` it was below 30%.
`COc1ccc(Nc2cc(=O)n(-c3ccccc3)c3c2c(=O)n(C)c(=O)n3C)cc1`: the inhibition turned out to be 60%.
The same measure, in the same setting: in the case of `C=C(C(=O)OC)C(O)c1ccc(Br)cc1` (configuration not stated) it was 60%; in that of `CC1CCN(CC(=O)Nc2ccc(Cl)cc2C(=O)c2ccccc2Cl)CC1`, 70%; in that of `CSc1ncc2c(n1)CC(C)(C)C/C2=N/OC(=O)c1ccc(Cl)cc1`, below 30%.
Regarding `CSc1scc(NC(=O)Nc2cccc(Cl)c2)c1S(=O)(=O)C(C)C`, the inhibition amounted to 60%.
The same measure, in the same setting: in the case of `COc1cc(OC)cc(C(C)(C)OC(=O)NCCC(=O)O)c1` it was below 30%; in that of `CC(=O)c1ccc(Nc2cc(C)nc3ccccc23)cc1`, below 30%; in that of `COc1ccccc1C1CCN(S(=O)(=O)c2ccc(C(C)C)cc2)CC1`, 80%.
Still for that read-out and setting: to `O=C(NC(=O)c1c(Cl)cccc1Cl)Nc1nc2cc(Cl)ccc2s1` belongs 50%; to `Cc1ccc(S(=O)(=O)Nc2ccc(C)cc2NS(=O)(=O)c2ccc(Cl)cc2)cc1`, 40%.
The same measure, in the same setting: in the case of `O=S(=O)(c1cccc(Cl)c1)N1CCC(O)(c2ccc(Cl)cc2)CC1` it was 70%.
In the case of `CC(C)(C)c1ccc(-c2noc(-c3ccc4c(c3)CCO4)n2)cc1`, the inhibition amounted to 60%.
For the compound `COc1ccc2c(c1)CCC1SC(NC(=O)c3ccco3)=NC21` (configuration not stated), the inhibition is below 30%.
Same read-out and setting: to `COc1ccc(NC(=S)Nc2ccc(C)c(NS(C)(=O)=O)c2)cc1` belongs 70%; to `COc1ccccc1C1CCN(C(=O)CSCc2cccc3ccccc23)CC1`, 80%; to `Cc1cc(-c2nnc(C(F)(F)F)o2)ccc1NC(=S)Nc1ccc(Cl)cc1Cl`, 70%.
With `CS/C(=N\c1ccc(C)cc1)Nc1ccc(C)cc1`, the inhibition is 50%.
Same read-out and setting: in the case of `O=C(Nc1ccc(Oc2ccccc2)cc1)Nc1cccs1` it was 70%; in that of `CCOC(=O)c1cc(Cl)ccc1OS(=O)(=O)c1ccc(NC(C)=O)cc1`, 50%; in that of `O=C(Nc1cccc(C(F)(F)F)c1)Nc1nnc(C2CC2)s1`, 50%.
The same measure, in the same setting: to `O=C(Oc1ccccc1)c1csc(C2COc3ccccc3O2)n1` (configuration not stated) belongs below 30%.
Turning to `O=C1NC(=S)S/C1=C/c1ccc(Cl)cc1Cl`, the inhibition was 40%.
Same read-out and setting: to `Cc1nnsc1C(=O)NCc1csc2ccc(Cl)cc12` belongs below 30%.
For the compound `N=C(NC(=O)c1cccc(Cn2cc(C(F)(F)F)ccc2=O)c1)c1ccc(Cl)cc1`, the inhibition is 40%.
For `Cc1cc(-c2nc(-c3ccc(C(C)(C)C)cc3)no2)no1`, the inhibition was 30%.
On the same count and under the same terms, to `N#Cc1ccc(NS(=O)(=O)c2ccc3ccccc3c2)cc1` belongs 40%; to `CCC1(c2cccc(OC)c2)CCCC(=O)NC1` (configuration not stated), below 30%; to `CC(=O)OC[C@H](OC(C)=O)[C@@H](OC(C)=O)[C@@H](OC(C)=O)[C@H](OC(C)=O)c1nnn[nH]1`, below 30%.
Turning to `Cc1onc(-c2c(Cl)cccc2Cl)c1/C=C1/C(=O)Nc2ccccc21`, the inhibition was 30%.
As to `O=C1/C(=C\c2ccc3c(c2)OCO3)C(c2ccccc2)Oc2ccccc21` (configuration not stated), the inhibition was 50%.
`COc1cccc(/C=C2/C=C(C3CCCS3)OC2=O)c1OC` (configuration not stated): the inhibition is below 30%.
On to `COc1ccccc1N1CCN(Cc2c[nH]c3ccccc23)CC1`, for which the inhibition was determined as 70%.
Same read-out and setting: to `O/N=C/c1ccc2c(c1)CCO2` belongs below 30%.
Take `CCc1c(O)c2ccccc2n(C)c1=O`: the inhibition turned out to be 50%.
Still for that read-out and setting: in the case of `O=C(Oc1ccc(Oc2ccccc2)cc1)N1CCC(OC(=O)n2ccnc2)CC1` it was below 30%; in that of `Cn1nc(-c2ccc(Cl)cc2)cc1NS(=O)(=O)c1cccc2nonc12`, below 30%; in that of `O=C(/C=C/c1ccc(OC(F)(F)F)cc1)NCc1ccco1`, 60%.
Same read-out and setting: in the case of `CSC(SC)=C(C#N)C(=O)c1ccccc1Cl` it was below 30%; in that of `CCNC(=O)C(Cc1ccccc1)NC(=O)OC(C)(C)C` (configuration not stated), 30%.
Take `CSC1=N/C(=C\c2ccccc2O)C(=O)N1Cc1ccco1`: the inhibition was below 30%.
On the same count and under the same terms, in the case of `c1ccc2c(CN3CCN(Cc4ccc5c(c4)OCO5)CC3)c[nH]c2c1` it was 60%.
In the case of `O=C1CC(c2ccccc2)CC(=O)N1c1ccc(Oc2ccc(Cl)cc2)cc1`, the inhibition is below 30%.
With `O=C(CC12CC3CC(CC(C3)C1)C2)N1CCOCC1`, the inhibition was below 30%.
Same read-out and setting: in the case of `Cc1onc(-c2ccccc2)c1-c1cnn(S(=O)(=O)c2ccc(Cl)cc2)c1` it was 30%.
In the case of `O=C(c1ccc(F)cc1)C1CCN(Cc2c[nH]c(-c3ccccc3)n2)CC1`, the inhibition is 30%.
Still for that read-out and setting: in the case of `CCCC1c2ccsc2CCN1C(=S)Nc1ccc(Cl)cc1Cl` (configuration not stated) it was 40%; in that of `O=C(c1cccs1)N1CCCN(Cc2cccc3ccccc23)CC1`, 80%.
The same measure, in the same setting: in the case of `CC(C)(C)c1cc(C(=O)/C(C#N)=N/Nc2cccc(Cl)c2)no1` it was 70%; in that of `COc1ccc(CCNc2ccc(C(F)(F)F)cc2[N+](=O)[O-])cc1OC`, 30%; in that of `OC(COc1ccc(F)cc1)CN1CCN(Cc2c(F)cccc2Cl)CC1` (configuration not stated), 30%.
The same measure, in the same setting: in the case of `Cc1onc(-c2c(Cl)cccc2Cl)c1C(=O)NCCc1csc2ccccc12` it was below 30%; in that of `c1ccc(CSc2nccc(-c3ccc4c(c3)CCO4)n2)cc1`, 70%; in that of `FC(F)(F)c1ccccc1NC(=S)N1CCCN(c2nc3ccc(Cl)cc3s2)CC1`, 60%.
Regarding `CC1(C)CC(=O)c2c(SCCOC(=O)Nc3cccc(Cl)c3)sc(C#N)c2C1`, the inhibition is below 30%.
For `Cc1cc(C(=O)Nc2ccc(C(C)(C)C)cc2)nn1Cc1c(Cl)cccc1Cl`, the inhibition is 70%.

These data come from ChEMBL document CHEMBL3727350, “Agents and methods for treating ischemic and other diseases” (2014).
